Columns and labels:
[1] = tested on: Murine erythroleukemia cells (MEL); experiment: HMBA-induced differentiation and growth of erythroleukemic cells; format: cell-based, mouse; details: day 3 (Table 2)
Description: Mouse erythroleukemic cells (MEL): MEL cells are erythroblast like cells. Following treatment with several chemicals (differentiation inducers) the cells undergo erythroid differentiation and accumulate hemoglobin. […] At day 3 of the culture, the total number of cells and the percentage of hemoglobin-containing cells were determined (Table 2).
On day 3, total cell number and hemoglobin containing (benzidine positive) cells were determined.

[2] = tested on: lethally irradiated Balb/c×C57B1/6 F1 mice; experiment: Hematopoietic reconstitution of lethally irradiated mice with ex-vivo expanded bone marrow cells; format: in vivo; details: compared to fresh cells or cells expanded without TEPA
Description: Hematopoietic reconstitution of lethally irradiated mice—fresh vs. ex-vivo expanded cells: Three month old female Balb/c×C57B1/6 F1 mice were lethally irradiated (1000 rad) and transplanted one day later with 1×10^5 fresh bone marrow cells or the yield of 1×10^5 bone marrow cells expanded ex-vivo either with or without TEPA for 3 to 5 weeks, as detailed in Table 7. Peripheral blood WBC counts were performed on weekly basis.

[3] = tested on: NOD/SCID mice; experiment: Engraftment of SCID mice by ex-vivo expanded human hematopoietic cells; format: in vivo; details: for Engraftment Colonies: 2 weeks ex-vivo, TEPA + Cytokines
Description: Engraftment of SCID mice by ex-vivo expanded human hematopoietic cells: Cord blood purified CD34^+ cells either fresh or following 2 or 4 weeks of ex-vivo culture (plus or minus TEPA) were injected into NOD/SCID mice essentially as described in (56). After 4 weeks, the mice were sacrificed and their femora and tibias were excised and the bone marrow flushed with a syringe fitted with a 25 gauge needle. A single cell suspension was prepared, the cells were washed and an aliquot counted with Trypan blue. In order to quantitate engrafted cells of human origin, cells were stained with FITC-conjugated anti CD45 antibodies and PE-conjugated either anti CD34, CD19 or CD33 antibodies. Anti CD45 antibodies recognize human, but not mouse, cells, and thus, indicates the human origin of the cells. The proliferation and differentiation potential of the engrafted cells was assayed by cloning bone marrow cells in semi-solid medium under conditions that allow specifically growth of human derived colonies essentially as described in (56).

Compound: NCCNCCNCCNCCN [TEPA, tetraethylenepentamine]
- HMBA-induced differentiation of MEL cells [1]: inhibited
- WBC recovery [2]: faster
- Engraftment Colonies ([3]; CB 2 10% FCS (first listed)): 330 per 2 × 10^5 SCID BM cells
- Engraftment Colonies ([3]; CB 3 10% FCS): 100 per 2 × 10^5 SCID BM cells
- Engraftment Colonies ([3]; CB 6 1% FCS): 350 per 2 × 10^5 SCID BM cells
- Engraftment Colonies ([3]; CB 6 10% FCS): 420 per 2 × 10^5 SCID BM cells
- cord blood samples that succeeded to engraft the animals ([3]; of 6 samples expanded ex-vivo, without TEPA 2 out of 6): 6

— patent US20020159981A1, “Methods of controlling proliferation and differentiation of stem and progenitor cells” (Gamida-Cell Ltd., priority 1999, published 2002)
